# Experimental data taken from patent publication US9242941B2, “Alkyl, fluoroalkyl-1,4-benzodiazepinone compounds” (BRISTOL-MYERS SQUIBB COMPANY, priority 2012, dated 2016).
# pIC50: −log10 of the molar value.
# How the values were obtained:
# human Notch 1 = assay: Notch-CBF1 Transactivation Assay (Notch 1); assay type: cell-based; details: read-out: Notch 1 IC50; Notch-CBF1 transactivation luciferase assay in transfected HeLa cells; some values are an average of N experiments
# From the text: (§1) Notch-CBF1 Transactivation Assay
# (§2) The Notch-CBF1 (C-promoter binding factor I) cell based transactivation assay is based on the ability of the released Notch intracellular domain fragments (NICDs) to function as transcription factors in conjunction with CBF1 and other nuclear factors. Luciferase assays were used to measure the antagonism of Notch-CBF1 transcriptional activity. HeLa cervical cancer cells are transiently co-transfected with pCDNA3.1/Hygro plasmids containing truncated Notch 1, Notch 2, Notch 3, or Notch 4 receptors and a PGL3 luciferase reporter vector containing 4 copies of CBF1 binding site. The cells were then tested for Notch-CBF1 activity in the absence or presence of test compounds. HeLa cells, maintained in DMEM (high glucose with HEPES), 1× glutamine/penicillin/streptomycin and 10% Fetal Bovine serum, were transiently transfected in a T175 Flask (4.5×10^6 cells/flask) using the Monster Transfection Kit (Minis #MIR2906) according to manufacturers specifications. Table 13 denotes respective DNA quantity for the transfections.
# (§3) Assay media (5 μL) containing test compounds in final concentrations ranging from 5 μM to 8.4×10^−5 μM (3 fold serial dilutions) were added to the cells and the cell plates were then incubated for 18 hours at 37° C. and 5% CO2. Control wells contained DMSO vehicle (total counts) or 0.5 μM of an in-house small molecule inhibitor (background counts). Duplicates were used for each sample. Luciferase activity was measured after a 20-minute incubation with 50 μl STEADY-GLO® luciferase reagents according to manufacturer's specifications (Promega, Cat. #E2550) and analyzed by Envision plate reader (PerkinElmer, Boston, Mass.).
# (§4) The antagonist effect of compounds was expressed as 100×[1−(average sample−average background)/(average total−average background)] where sample is the luciferase activity in the presence of test compound, background is equal to the luciferase activity in the presence of the small molecule inhibitor control and the total is signal induced in DMSO wells.
# human Notch 3 = assay: Notch-CBF1 Transactivation Assay (Notch 3); assay type: cell-based; details: read-out: Notch 3 IC50; Notch-CBF1 transactivation luciferase assay in transfected HeLa cells; some values are an average of N experiments
# From the text: as §1, §2, §3, §4
# [1] = human metabolic stability half-life assay; details: microsomes, human liver microsomes
# Protocol: Metabolic Stability Half-Life Panel
# Incubation with Liver Microsomes
# [2] = tested on: Human T-cell acute lymphoblastic leukemia cell line TALL-1; assay: Human Tumor Xenograft Models in Mice: TALL-1; assay type: in vivo; details: for Antitumor Activity in TALL-1 (LCK), BID dosing / Antitumor Activity in TALL-1 (LCK), QD dosing: Log Cell Kill, oral administration, schedule QDx10, dose unit not given; for Antitumor Activity in TALL-1 (LCK), BID dosing: dose 20 (Ex 35, 37); for antitumor activity in the Human Tumor Xenograft Models in mice: oral administration (PO) either BID and/or QD, Table 24 (TALL-1); for Antitumor Activity in TALL-1 (LCK), QD dosing: dose 20 (Ex 1, 52), 12 (Ex 10), 40 (Ex 40)
# [3] = tested on: human triple negative breast carcinoma cell line MDA-MB-157; assay: Human Tumor Xenograft Models in Mice: MDA-MB-157; assay type: in vivo; details: PO, QDx15 (10 day on-2 day off-5 day on); FIG. 14; result in words
# Protocol: (§5) Dosed orally; PO, QDx15 (10 day on-2 day off-5 day on). Each symbol represents the median tumor burden of a group of 8 mice.
# (§6) Human Tumor Xenograft Models in Mice
# (§7) Mice were fed food and water ad libitum.
# (§8) Preclinical Chemotherapy Trials
# (§9) Tumor growth inhibition is calculated as follows: […]
# (§10) In Vivo Antitumor Activity
# [4] = tested on: human triple negative breast carcinoma cell line MDA-MB-468; assay: Human Tumor Xenograft Models in Mice: MDA-MB-468; assay type: in vivo; details: PO, QDx15 (10 day on-2 day off-5 day on); FIG. 15; result in words
# Protocol: as §5, §6, §7, §8, §9, §10
# [5] = tested on: human PAT70 pancreatic carcinoma cell line; assay: Human Tumor Xenograft Models in Mice: PAT70; assay type: in vivo; details: PO, QDx15 (10 day on-2 day off-5 day on); FIG. 16; result in words
# Protocol: as §5, §6, §7, §8, §9, §10
# [6] = pH 7.4, CYP-mediated metabolic stability half life, NADPH-dependent
# [7] = pH 7.4, HLM (t1/2, min), CYP-mediated (NADPH-dependent), 0.5 μM compound, 45 min time course, some values are an average of N experiments
Compound,pIC50 (human Notch 1),pIC50 (human Notch 3),"half-life at 0.5 µM [1, 6] [min]","half-life at 0.5 µM [1, 7] [min]","Antitumor Activity in TALL-1 (LCK), BID dosing [2]",antitumor activity in the Human Tumor Xenograft Models in mice ([2]; result in words),"Antitumor Activity in TALL-1 (LCK), QD dosing [2]","in vivo antitumor activity, TALL-1 xenograft ([2]; PO, QDx10, FIGS. 12-13, result in words)","in vivo antitumor activity, MDA-MB-157 xenograft [3]","in vivo antitumor activity, MDA-MB-468 xenograft [4]","in vivo antitumor activity, PAT70 xenograft [5]"
"CCC[C@H](C(N)=O)[C@@H](CCC(F)(F)F)C(=O)N[C@H]1N=C(c2ccccc2)c2cccc(F)c2NC1=O [Example 37, (2R,3S)—N-((3S)-9-Fluoro-2-oxo-5-phenyl-2,3-dihydro-1H-1,4-benzodiazepin-3-yl)-3-propyl-2-(3,3,3-trifluoropropyl)succinamide]",8.36,7.95,≥ 30,43,2.0,showed antitumor activity,–,–,–,–,–
"CCC[C@H](C(N)=O)[C@@H](CCC(F)(F)F)C(=O)N[C@H]1N=C(c2ccccc2)c2cccc(OC)c2NC1=O [Example 40, (2R,3S)—N-((3S)-9-Methoxy-2-oxo-5-phenyl-2,3-dihydro-1H-1,4-benzodiazepin-3-yl)-3-propyl-2-(3,3,3-trifluoropropyl)succinamide]",8.17,8.16,≥ 30,34,–,showed antitumor activity,1.4,–,–,–,–
"CCC[C@H](C(N)=O)[C@@H](CCC(F)(F)F)C(=O)N[C@H]1N=C(c2ccccc2)c2cccc(C(F)(F)F)c2NC1=O [Example 35, (2R,3S)—N-((3S)-2-Oxo-5-phenyl-9-(trifluoromethyl)-2,3-dihydro-1H-1,4-benzodiazepin-3-yl)-3-propyl-2-(3,3,3-trifluoropropyl)succinamide]",7.79,7.89,≥ 30,36,3.1,showed antitumor activity,–,–,–,–,–
"Cc1cccc2c1NC(=O)[C@@H](NC(=O)[C@H](CCC(F)(F)F)[C@H](CC1CC1)C(N)=O)N=C2c1cccc(F)c1 [Example 10, (2R,3S)-3-(Cyclopropylmethyl)-N-((3S)-5-(3-fluorophenyl)-9-methyl-2-oxo-2,3-dihydro-1H-1,4-benzodiazepin-3-yl)-2-(3,3,3-trifluoropropyl)succinamide]",8.40,8.01,≥ 30,72,–,showed antitumor activity,>2.8,–,–,–,–
"CC(C)[C@H](N)C(=O)OCN1C(=O)[C@@H](NC(=O)[C@H](CCC(F)(F)F)[C@H](CC2CC2)C(N)=O)N=C(c2ccccc2)c2cccc(F)c21 [Example 52, ((3S)-3-(((2R)-2-((1S)-2-Amino-1-(cyclopropylmethyl)-2-oxoethyl)-5,5,5-trifluoropentanoyl)amino)-9-fluoro-2-oxo-5-phenyl-2,3-dihydro-1H-1,4-benzodiazepin-1-yl)methyl L-valinate]",–,–,–,–,–,showed antitumor activity,5.7,–,–,–,–
"NC(=O)[C@@H](CC1CC1)[C@@H](CCC(F)(F)F)C(=O)N[C@H]1N=C(c2ccccc2)c2cccc(F)c2NC1=O [Example 1, (2R,3S)-3-(Cyclopropylmethyl)-N-((3S)-9-fluoro-2-oxo-5-phenyl-2,3-dihydro-1H-1,4-benzodiazepin-3-yl)-2-(3,3,3-trifluoropropyl)succinamide]",8.38,8.21,≥ 30,85,–,showed antitumor activity,4.5,exhibited antitumor activity,exhibited antitumor activity,exhibited antitumor activity,exhibited antitumor activity
"NC(=O)[C@@H](CC1CC1)[C@@H](CCC(F)(F)F)C(=O)N[C@H]1N=C(c2ccccc2)c2cccc(OC3CC3)c2NC1=O [Example 6, (2R,3S)-3-(Cyclopropylmethyl)-N-((3S)-9-(cyclopropyloxy)-2-oxo-5-phenyl-2,3-dihydro-1H-1,4-benzodiazepin-3-yl)-2-(3,3,3-trifluoropropyl)succinamide]",8.14,8.07,≥ 30,83,–,–,–,–,–,–,–
"Cc1cccc(C2=N[C@H](NC(=O)[C@H](CCC(F)(F)F)[C@H](CC3CC3)C(N)=O)C(=O)Nc3c(F)cccc32)c1 [Example 19, (2R,3S)-3-(Cyclopropylmethyl)-N-((3S)-9-fluoro-5-(3-methylphenyl)-2-oxo-2,3-dihydro-1H-1,4-benzodiazepin-3-yl)-2-(3,3,3-trifluoropropyl)succinamide]",8.57,8.14,≥ 30,56,–,–,–,–,–,–,–
"NC(=O)[C@@H](CC1CC1)[C@@H](CCC(F)(F)F)C(=O)N[C@H]1N=C(c2ccccc2)c2ccc(Cl)c(Cl)c2NC1=O [Example 34, (2R,3S)-3-(Cyclopropylmethyl)-N-((3S)-8,9-dichloro-2-oxo-5-phenyl-2,3-dihydro-1H-1,4-benzodiazepin-3-yl)-2-(3,3,3-trifluoropropyl)succinamide]",8.33,8.13,≥ 30,> 120,–,–,–,–,–,–,–
"COc1cccc2c1NC(=O)[C@@H](NC(=O)[C@H](CCC(F)(F)F)[C@H](CC1CC1)C(N)=O)N=C2c1ccccc1 [Example 38, (2R,3S)-3-(Cyclopropylmethyl)-N-((3S)-9-methoxy-2-oxo-5-phenyl-2,3-dihydro-1H-1,4-benzodiazepin-3-yl)-2-(3,3,3-trifluoropropyl)succinamide]",8.64,8.48,≥ 30,70,–,–,–,–,–,–,–
